This note sets out measurements from US9079887B2, “Antiviral compounds” (priority 2012, dated 2015).

The structures appear in SMILES notation. Read-outs that look alike come from different tables or passages of the source. Where only a bound is given, the exact number is not on record here.

Assay type in all cases: cell-based
The test system of test [1] is stable HCV 1a RLuc replicon cells (genotype 1a H77 replicon). Kind of test: HCV replicon RLuc reporter assay, genotype 1a. The following applies: Hepatitis C virus, genotype 1a replicon. How it is done: (§1) Antiviral potency (EC50) was determined using a Renilla luciferase (RLuc)-based HCV replicon reporter assay. To perform the assay for genotype 1 and 2a JFH-1, stable HCV 1a RLuc replicon cells (harboring a dicistronic genotype 1a H77 replicon that encodes a RLuc reporter), stable HCV 1b RLuc replicon cells (harboring a dicistronic genotype 1b Con1 replicon that encodes a RLuc reporter), or stable HCV 2a JFH-1 Rluc replicon cells (harboring a dicistronic genotype 2a JFH-1 replicon that encodes a RLuc reporter; with L31 present in NS5A) were dispensed into 384-well plates for EC50 assays. To perform the assay for genotype 2a (with M31 present in NS5A) or 2b, NS5A chimeric genotype 2a JFH-1 replicons that encodes a RLuc-Neo reporter and either genotype 2a J6 strain NS5A gene or genotype 2b MD2b-1 strain NS5A gene (both with M31 present) respectively, were either transiently transfected (t) into Huh-Lunet cells or were established as stably replicating replicon cells (s). Either cells were dispensed into 384-well plates for EC50 assays. To perform the assay for genotype 3 and 4, NS5A chimeric genotype 1b Con1 replicons that encodes a Pi-RLuc reporter and either genotype 3a S52 strain NS5A gene or genotype 4a ED43 strain NS5A gene respectively, were transiently transfected (t) into Huh-Lunet cells, which were subsequently dispensed into 384-well plates. Alternatively, stable HCV 3a RLuc replicon cells (s) (harboring a dicistronic genotype 3a S52 replicon that encodes an RLuc reporter), or stable HCV 4a RLuc replicon cells (s) (harboring a dicistronic genotype 4a ED43 replicon that encodes a RLuc reporter) were established in Huh-7-derived cells and dispensed into 384-well plates for EC50 assays. Compounds were dissolved in DMSO at a concentration of 10 mM and diluted in DMSO either manually or using an automated pipeting instrument. Serially 3-fold diluted compounds were either manually mixed with cell culture media and added to the seeded cells or directly added to the cells using an automated instrument. DMSO was used as a negative (solvent; no inhibition) control, and the protease inhibitor ITMN-191 was included at a concentration >100×EC50 as a positive control. 72 hours later, cells were lysed and Renilla luciferase activity quantified as recommended by the manufacturer (Promega-Madison, Wis.). Non-linear regression was performed to calculate EC50 values.

For test [2], the system named is stable HCV 4a RLuc replicon cells (genotype 4a ED43 replicon). Kind of test: HCV replicon assay, genotype 4a (stable). The following applies: Hepatitis C virus. How it is done:
as §1
On the technique in general: A replicon is a self-replicating genome or part of one, used to study replication in cells.

The test system of test [3] is stable HCV 3a RLuc replicon cells (genotype 3a S52 replicon). Kind of test: HCV replicon assay, genotype 3a (stable). The settings on record: Hepatitis C virus. How it is done: as §1
A short description of test [4]: HCV replicon assay, genotype 2b (stable). The settings on record: Hepatitis C virus, genotype 2a / genotype 2b. The method, then: as §1
For test [5], the system named is stable HCV 1b RLuc replicon cells (genotype 1b Con1 replicon). Kind of test: HCV replicon RLuc reporter assay, genotype 1b. The settings on record: Hepatitis C virus; genotype 1b replicon, 72 hours. How it is done: as §1
The test system of test [6] is stable HCV 2a JFH-1 Rluc replicon cells (L31 present in NS5A). Nature of the test: HCV replicon RLuc reporter assay, genotype 2a JFH-1. The following applies: Hepatitis C virus. How it is done:
as §1

Test [7] in a line: HCV replicon assay, genotype 2a J6 (transient). The settings on record: Hepatitis C virus. The method, then: as §1

With `COC[C@H]1C[C@@H](c2ncc(-c3ccc(-c4ccc(-c5[nH]c([C@@H]6CC[C@H](C)N6C(=O)[C@@H](NC(=O)OC)C(C)C)nc5Cl)cc4)cc3)[nH]2)N(C(=O)[C@@H](NC(=O)OC)C(C)C)C1` [AH, Methyl (S)-1-((2S,4S)-2-(5-(4′-(4-chloro-2-((2S,4S)-1-((R)-2-(methoxycarbonylamino)-3-methylbutanoyl)-5-methylpyrrolidin-2-yl)-1H-imidazol-5-yl)biphenyl-4-yl)-1H-imidazol-2-yl)-4-(methoxymethyl)pyrrolidin-1-yl)-3-methyl-1-oxobutan-2-ylcarbamate], the EC50 is 0.037 nM in test [1]; under 0.1 nM in test [1] (activity range); under 0.1 nM in test [2] (read-out: 4a (s)); 0.02 nM in test [2] (read-out: 4a (s) (nM)); 1 to 44 nM in test [3] (read-out: 3a (s)); 36.5 nM in test [3] (read-out: 3a (s) (nM)). In addition, the EC50 was 1 to 44 nM in test [4] (2BS, read-out: 2b (s)); 7.3 nM in test [4] (read-out: 2b (s) (nM)); 0.04 nM in test [5]; under 0.1 nM in test [6] (read-out: 2a JFH); 0.066 nM in test [6] (read-out: 2a JFH (nM)).

In the case of `COC[C@H]1C[C@@H](c2nc(Cl)c(-c3ccc(-c4ccc(-c5cnc([C@@H]6CC[C@H](C)N6C(=O)[C@@H](NC(=O)OC)C(C)C)[nH]5)cc4)cc3)[nH]2)N(C(=O)[C@@H](NC(=O)OC)C(C)C)C1` [AI, Methyl (S)-1-((2S,4S)-2-(4-chloro-5-(4′-(2-((2S,4S)-1-((R)-2-(methoxycarbonylamino)-3-methylbutanoyl)-5-methylpyrrolidin-2-yl)-1H-imidazol-5-yl)biphenyl-4-yl)-1H-imidazol-2-yl)-4-(methoxymethyl)pyrrolidin-1-yl)-3-methyl-1-oxobutan-2-ylcarbamate], the EC50 was 0.034 nM in test [1]; under 0.1 nM in test [1] (activity range); under 0.1 nM in test [2] (read-out: 4a (s)); 0.018 nM in test [2] (read-out: 4a (s) (nM)); 1 to 44 nM in test [3] (read-out: 3a (s)); 40.8 nM in test [3] (read-out: 3a (s) (nM)). For the same molecule, the EC50 in test [4] (2BS, read-out: 2b (s)) is 1 to 44 nM; in test [4] (read-out: 2b (s) (nM)) it was 5.08 nM; in test [5], 0.028 nM; in test [6] (read-out: 2a JFH), under 0.1 nM; in test [6] (read-out: 2a JFH (nM)), 0.075 nM.

Consider `COC[C@H]1C[C@@H](c2nc(Cl)c(-c3ccc(-c4ccc(-c5[nH]c([C@@H]6CC[C@H](C)N6C(=O)[C@@H](NC(=O)OC)C(C)C)nc5Cl)cc4)cc3)[nH]2)N(C(=O)[C@@H](NC(=O)OC)C(C)C)C1` [Example AG, Methyl (S)-1-((2S,4S)-2-(4-chloro-5-(4′-(4-chloro-2-((2S,4S)-1-((R)-2-(methoxycarbonylamino)-3-methylbutanoyl)-5-methylpyrrolidin-2-yl)-1H-imidazol-5-yl)biphenyl-4-yl)-1H-imidazol-2-yl)-4-(methoxymethyl)pyrrolidin-1-yl)-3-methyl-1-oxobutan-2-ylcarbamate], for which the EC50 in test [1] was 0.022 nM; in test [1] (activity range), under 0.1 nM; in test [2] (read-out: 4a (s)), under 0.1 nM; in test [2] (read-out: 4a (s) (nM)) it was 0.011 nM; in test [3] (read-out: 3a (s)), 1 to 44 nM; in test [3] (read-out: 3a (s) (nM)), 17.6 nM. Further, the EC50 in test [4] (2BS, read-out: 2b (s)) was 1 to 44 nM; in test [4] (read-out: 2b (s) (nM)), 2.56 nM; in test [5] it was 0.019 nM; in test [6] (read-out: 2a JFH), under 0.1 nM; in test [6] (read-out: 2a JFH (nM)), 0.05 nM.

With `COC[C@H]1C[C@@H](c2ncc(-c3ccc(-c4ccc(-c5cnc([C@@H]6CC[C@H](C)N6C(=O)[C@@H](NC(=O)OC)C6CCOCC6)[nH]5)cc4)cc3)[nH]2)N(C(=O)[C@@H](NC(=O)OC)C2CCOCC2)C1` [Example AJ, Methyl [(1S)-2-{(2S,5S)-2-[5-(4′-{2-[(2S,4S)-1-[(2S)-2-[(methoxycarbonyl)amino]-2-(tetrahydro-2H-pyran-4-yl)acetyl]-4-(methoxymethyl)pyrrolidin-2-yl]-1H-imidazol-5-yl}biphenyl-4-yl)-1H-imidazol-2-yl]-5-methylpyrrolidin-1-yl}-2-oxo-1-(tetrahydro-2H-pyran-4-yl)ethyl]carbamate], the EC50 is 0.1 to 0.999 nM in test [7] (read-out: 2a J6 (t)); 0.155 nM in test [7] (read-out: 2a J6 (t) (nM)); 0.186 nM in test [1]; 0.1 to 0.999 nM in test [1] (activity range); 0.1 to 0.999 nM in test [2] (read-out: 4a (s)); 0.133 nM in test [2] (read-out: 4a (s) (nM)). Further, the EC50 was 1 to 44 nM in test [3] (read-out: 3a (s)); 1.34 nM in test [3] (read-out: 3a (s) (nM)); 0.1 to 0.999 nM in test [4] (2BS, read-out: 2b (s)); 0.672 nM in test [4] (read-out: 2b (s) (nM)); 0.384 nM in test [5]; under 0.1 nM in test [6] (read-out: 2a JFH). Besides, the EC50 in test [6] (read-out: 2a JFH (nM)) turned out to be 0.079 nM.

For `COC[C@H]1C[C@@H](c2ncc(-c3ccc(-c4ccc(-c5cnc([C@@H]6CC[C@H](C)N6C(=O)[C@@H](NC(=O)OC)C6CCOCC6)[nH]5)cc4)cc3)[nH]2)N(C(=O)[C@@H](NC(=O)OC)C(C)C)C1` [Example AL, Methyl {(2S)-1-[(2S,4S)-2-{5-[4′-(2-{(2S,5S)-1-[(2S)-2-[(methoxycarbonyl)amino]-2-(tetrahydro-2H-pyran-4-yl)acetyl]-5-methylpyrrolidin-2-yl}-1H-imidazol-5-yl)biphenyl-4-yl]-1H-imidazol-2-yl}-4-(methoxymethyl)pyrrolidin-1-yl]-3-methyl-1-oxobutan-2-yl}carbamate], the EC50 in test [7] (read-out: 2a J6 (t)) was under 0.1 nM; in test [7] (read-out: 2a J6 (t) (nM)), 0.084 nM; in test [1] it was 0.052 nM; in test [1] (activity range), under 0.1 nM; in test [2] (read-out: 4a (s)) it was under 0.1 nM; in test [2] (read-out: 4a (s) (nM)), 0.04 nM. Further, the EC50 in test [3] (read-out: 3a (s)) was 1 to 44 nM; in test [3] (read-out: 3a (s) (nM)), 2.14 nM; in test [4] (2BS, read-out: 2b (s)) it was 1 to 44 nM; in test [4] (read-out: 2b (s) (nM)) it was 2.17 nM; in test [5], 0.074 nM; in test [6] (read-out: 2a JFH), under 0.1 nM. The EC50 in test [6] (read-out: 2a JFH (nM)) was 0.035 nM.

As to `COC[C@H]1C[C@@H](c2ncc(-c3ccc(-c4ccc(-c5cnc([C@@H]6CC[C@H](C)N6C(=O)[C@@H](NC(=O)OC)C(C)C)[nH]5)cc4)cc3)[nH]2)N(C(=O)[C@@H](NC(=O)OC)C2CCOCC2)C1` [Example AN, Methyl [(1S)-2-[(2S,4S)-2-[5-(4′-{2-[(2S,5S)-1-{(2S)-2-[(methoxycarbonyl)-amino]-3-methylbutanoyl}-5-methylpyrrolidin-2-yl]-1H-imidazol-5-yl}biphenyl-4-yl)-1H-imidazol-2-yl]-4-(methoxymethyl)pyrrolidin-1-yl]-2-oxo-1-(tetrahydro-2H-pyran-4-yl)ethyl]carbamate], the EC50 in test [7] (read-out: 2a J6 (t)) is 0.1 to 0.999 nM; in test [7] (read-out: 2a J6 (t) (nM)), 0.207 nM; in test [1] it was 0.037 nM; in test [1] (activity range), under 0.1 nM; in test [2] (read-out: 4a (s)), under 0.1 nM; in test [2] (read-out: 4a (s) (nM)), 0.035 nM. Further, the EC50 in test [3] (read-out: 3a (s)) is 1 to 44 nM; in test [3] (read-out: 3a (s) (nM)), 2.19 nM; in test [4] (2BS, read-out: 2b (s)), 1 to 44 nM; in test [4] (read-out: 2b (s) (nM)), 2.14 nM; in test [5] it was 0.065 nM; in test [6] (read-out: 2a JFH), under 0.1 nM. In addition, the EC50 in test [6] (read-out: 2a JFH (nM)) was 0.027 nM.
